The subject of data set [1] is MIP/SP cells. Nature of the data set: Cell viability (MTS) assay after Caspase 8 siRNA, MIP/SP. The data set is classed as cell-based, human. The conditions noted are these: Caspase 8 gene silencing, after 5-FU treatment (0-1200 μM) (FIG. 3A).
Data set [2] has as its system MIP/ZEO cells. Put plainly: Cell viability (MTS) assay after Caspase 8 siRNA, MIP/ZEO. Type of data set: cell-based, human. The conditions noted are these: Caspase 8 knock-down. The method, then: (§1) Cell Lines: MIP101 and HCT116 (ATCC) human CRC cells were maintained in DMEM media supplemented with 1% penicillin-streptomycin, 1% kanamycin (Invitrogen) and 10% newborn calf serum at 37° C. and 5% CO2. […] MIP101 transfected with empty vector (VIIP/ZEO) and MIP101 cells stably transfected with SPARC (MIP/SP), were also supplemented with 0.01% zeocin (Invitrogen).
(§2) Cell viability was assessed by MTS assay (Promega) at 490 nm. Caspase 3/7 Assay: Cells were transiently transfected with 40 nM of Caspase 8 siRNA for 48 hours, and incubated with 1000 μM 5-FU for another 48 hours. Total cell lysates were isolated and 20 μg of total protein/sample were used in Caspase-Glo 3/7 Assay (Promega), using a 1:1 dilution of Caspase-Glo 3/7 Substrate. Relative luminescence units (RLU) was quantified using a Viktor2 1420 Multilabel counter (Perkin Elmer).

In a further data set the test system is HCT116 cells. Nature of the data set: Cell viability (MTS) assay after Caspase 8 siRNA, HCT116. The data set is classed as cell-based, human. The conditions noted are these: HCT116, Caspase 8 siRNA+5-FU. The protocol: as §1, §2
For data set [3], the system named is MIP/5FU cells. Nature of the data set: Cell viability (MTS) assay after Caspase 8 siRNA, MIP/5FU. The conditions noted are these: with Caspase 8 knock-down (FIG. 3B). Type of data set: cell-based, human. The protocol: as §1, §2
Data set [4] deals with MIP/SP cells. Put plainly: caspase 8/9 inhibition, cell viability by MTS, MIP/SP. Type of data set: cell-based, human. The protocol: (§3) caspase 8/9 Inhibition: Cells were seeded (96-well plates), and incubated 24 hours later (˜60% confluence) with 10-50 μM of Caspase 8-like inhibitor (z-IETD-fmk, Sigma) or Caspase 9-like inhibitor (z-LEHDfink•TFA, Sigma) for 30 minutes, followed by incubation with 1000 μM 5-FU for an additional 24 hours. Cell viability was assessed by MTS assay.

Data set [5] has as its system MIP/ZEO cells. Nature of the data set: caspase 8/9 inhibition, cell viability by MTS, MIP/ZEO. Type of data set: cell-based, human. The protocol: as §3
For data set [6], the system named is Caspase 3/7 activity in MIP/SP cells. Put plainly: Caspase 3/7 assay (Caspase-Glo), MIP/SP. Type of data set: cell-based, human. The protocol:
(§4) Cell viability was assessed by MTS assay (Promega) at 490 nm. […] Total cell lysates were isolated and 20 μg of total protein/sample were used in Caspase-Glo 3/7 Assay (Promega), using a 1:1 dilution of Caspase-Glo 3/7 Substrate. Relative luminescence units (RLU) was quantified using a Viktor2 1420 Multilabel counter (Perkin Elmer).

Data set [7] relates to Caspase 3/7 activity in MIP/ZEO cells. Put plainly: Caspase 3/7 assay (Caspase-Glo), MIP/ZEO. Type of data set: cell-based, human. The protocol:
as §4

Data set [8] deals with Caspase 3 activation in MIP/5FU cells. Put plainly: Caspase 3/7 assay (Caspase-Glo), MIP/5FU. The data set is classed as cell-based, human. The conditions noted are these: Caspase 8 siRNA or scramble control (FIG. 4A). The protocol:
as §2

Data set [9] relates to MIP/SP cells. Nature of the data set: TUNEL assay, MIP/SP. Type of data set: cell-based, human. The method, then:
(§5) TUNEL Assay: Cells were seeded (24-well plates) to achieve ˜60% confluence 24 hours later for transient transfection with Caspase 8 siRNA. 36 hours later, cells were incubated with 1000 μM 5-FU for 36 hours, harvested (suspension and attached cells) and fixed onto glass slides with Shandon cytospin at 2000 rpm for 10 minutes and stained as per manufacturer's instructions (Promega). The number of TUNEL-positive cells was counted and averaged from four different fields (n=4 independent experiments, with slides read independently by two individuals in a blinded fashion).

For data set [10], the system named is MIP/ZEO cells. Put plainly: TUNEL assay, MIP/ZEO. Type of data set: cell-based, human. The conditions noted are these: 5-FU. The method, then:
as §5

Data set [11] concerns MIP/5FU cells. Nature of the data set: TUNEL assay, MIP/5FU. Type of data set: cell-based, human. The conditions noted are these: 5-FU treatment (FIG. 4B, C). The method, then: as §5
Data set [12] concerns Caspase 8 in MIP/SP tumors. Put plainly: Caspase 8 protein activity in MIP/SP tumor xenografts. The data set is classed as in vivo, nude mice. The conditions noted are these: MIP/SP tumors from animals treated with 5-FU (FIG. 6C).
Protocol: In addition, tumor xenografts of MIP/ZEO and MIP/SP cells from nude mice treated with either 5-FU (three consecutive days) or saline, were collected after the 1st cycle of treatment and homogenized (Kinematica, POLYTRON-Aggregate). Lysates were then prepared for immunoblot or RT-PCR. […] Similarly, cells seeded on coverslips at 150,000 cells/well in a E-well plate, treated 24 hours later with 1000 μM 5-FU for 2 hours were then fixed in 2% paraformaldehyde and processed for immunofluorescence staining as previously described [27]. In both cases, α-caspase 8 (1:50, paraffin-embedded tissues; 1:100, cells on coverslips) antibody was used and incubated overnight at 4° C., and counterstained with DAPI. Zeiss Axioplan 2 Fluorescence microscope was used for image capture.
Data set [13] in a line: in vitro cytotoxicity of ABX and Taxol. The conditions noted are these: Homo sapiens, A-431; A431 line. Type of data set: cell-based.
A further data set deals with T1, Procaspase 8 (Homo sapiens, UniProt Q14790).
T1 construct: endogenous in cells; host or cells: MIP101-derived cells expressing SPARC fragments (MIP/NT, MIP/FS, MIP/EC)
Nature of the data set: immunoprecipitation of Procaspase 8 with truncated SPARC polypeptides. The data set is classed as binding. The conditions noted are these: truncated SPARC polypeptide near amino terminus (MIP/NT), FIG. 8. The protocol:
Immunopreciptation was performed with anti-histidine tag antibody (IP: His) (See FIG. 8A) or an anti-Caspase 8 antibody (IP: Capsaase 8) (See FIG. 8B) in the presence of Procaspase 8 and truncated SPARC polypeptides comprising a sequence near the SPARC amino terminus (SEQ ID NO: 20) (MIP/NT), a sequence from the SPARC follistatin-like domain (SEQ ID NO: 22) (MIP/FS), a sequence from the SPARC extracellular domain (SEQ ID NO: 24) (MIP/EC) or a control antibody (IgG).

Data set [14] relates to Caspase 8 expression in MIP 101 tumor xenografts. Put plainly: Caspase 8 expression in MIP 101 mouse tumor xenografts. The data set is classed as in vivo, NIH nude mice. The conditions noted are these: mice administered SPARC as single agent (FIG. 6D). The protocol:
Animal Studies: Tumors harvested from xenografts from animals (NIH nude mice, 6 weeks old, Taconic Laboratories) were used for histology, RT-PCR or immunoblot. 2×10^6 MIP101 cells were injected into the left flank.
Experimental groups (2 animals/group) for this study included treatment with: SPARC, SPARC+5-FU, 5-FU only, and saline. In addition, tumor xenografts of MIP/ZEO and MIP/SP cells from nude mice treated with either 5-FU (three consecutive days) or saline, were collected after the 1st cycle of treatment and homogenized (Kinematica, POLYTRON-Aggregate). Lysates were then prepared for immunoblot or RT-PCR. All animals received care according to standard animal care protocol and guidelines. […] Similarly, cells seeded on coverslips at 150,000 cells/well in a E-well plate, treated 24 hours later with 1000 μM 5-FU for 2 hours were then fixed in 2% paraformaldehyde and processed for immunofluorescence staining as previously described. In both cases, α-caspase 8 (1:50, paraffin-embedded tissues; 1:100, cells on coverslips) antibody was used and incubated overnight at 4° C., and counterstained with DAPI. Zeiss Axioplan 2 Fluorescence microscope was used for image capture.

The target in data set [15] is T2, interaction between Bcl-2 and Procaspase 8 (Homo sapiens, UniProt Q14790).
T2 construct: lysates were separated into nuclear, cytosolic, and membrane fractions; endogenous in cells; host or cells: MIP/5FU (MIP101 resistant to 5-FU) and MiaPaca/CPT cells
Put plainly: co-immunoprecipitation of Bcl-2 and Procaspase 8 with exogenous SPARC. Type of data set: binding. The conditions noted are these: addition of exogenous SPARC, 10 μg/ml for 72-hrs; resistant cell lines (FIG. 9C). The method, then:
Cells were grown until ˜80% confluence, and lysates were separated into nuclear, cytosolic, and membrane fractions. 250 μg of individual cellular fractions were incubated with antibodies against HIS (1:100, Sigma), capsase 8 (N-terminus) (1:100, Abcam), Bcl-2 (1:100, Cell Signaling Technologies) or a non-specific anti-mouse IgG antibody as control (Cell Signaling Technologies), in PBS overnight (4° C.). Protein:Antibody mixture was then incubated with […] of Protein A:Protein G (Sigma) (1:1) beads for 4 hours (4° C.). For all complexes, beads were washed with PBS, and eluted with 2×SDS-loading buffer, and used for immunoblotting against caspase 8, HIS, or Bcl-2.
In order to determine the region of interaction between Bcl-2 and Procaspase 8, cells were also incubated with antibodies against caspase 8 targeting its C-terminus (Cell Signaling) or N-terminus (Abeam) in vitro for 24 hours at 1.5-3.0 μg prior to collecting and fractionating the cell lysates for immunoprecipitation. In addition, to assess if exogenous SPARC interferes with the interaction of procaspase 8 and Bcl-2, cells were incubated with 10 μg/ml of SPARC for 72-hrs, in the presence or absence of antibodies against SPARC (3 μg, Hematologic Technologies) for 24 hrs, prior to collection for cellular fractionation and immunoprecipitation.

[16] abbreviates: Homo sapiens, 1000 μM 5-FU for 24 hours only, read-out: decrease in cell viability.

Values after ≈ are worked out from the molar mass of the structure shown.

We go through six molecules from patent publication US8778302B2, “Procaspase 8-mediated disease targeting” (The University of British Columbia, priority 2007, dated 2014).

T2 sequence (Q14790 whole entry): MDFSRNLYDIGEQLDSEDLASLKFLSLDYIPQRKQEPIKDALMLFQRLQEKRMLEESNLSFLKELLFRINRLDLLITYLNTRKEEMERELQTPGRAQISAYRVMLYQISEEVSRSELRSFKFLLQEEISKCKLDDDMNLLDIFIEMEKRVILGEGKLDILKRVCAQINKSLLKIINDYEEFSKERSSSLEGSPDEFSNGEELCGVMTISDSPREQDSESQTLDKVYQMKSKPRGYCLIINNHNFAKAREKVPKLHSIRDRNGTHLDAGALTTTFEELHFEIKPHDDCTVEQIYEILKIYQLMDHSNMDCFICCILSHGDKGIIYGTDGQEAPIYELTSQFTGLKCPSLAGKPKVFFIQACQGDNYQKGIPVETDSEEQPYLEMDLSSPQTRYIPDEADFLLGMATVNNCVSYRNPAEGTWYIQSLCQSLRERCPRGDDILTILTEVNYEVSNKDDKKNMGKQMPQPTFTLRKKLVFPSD
T1 sequence (Q14790 whole entry, the tested form may be a part): as the sequence (Q14790 whole entry) above

For `O=c1[nH]cc(F)c(=O)[nH]1` [5-FU, 5-fluorouracil], in the data set with MIP/SP cells [1], the “cell viability (viable cells)” value was 97.6±1.4%. The cell viability (in general, the share of living cells, or the viability signal relative to a control) with MIP/ZEO cells [2] (following 5-FU treatment (FIG. 3B)) was determined as 75.5±0.5%. For the same molecule, the viability (as a rule, the share of living cells, or the viability signal relative to a control) at 1200 µM in the data set with MIP/ZEO cells [2] (Homo sapiens, 5-FU 1200 μM (FIG. 3A)) is 52.1 ± 1.7%. Besides, the viable cells in the data set on HCT116 cells is reported as 88.2±2.3%. Also, the “effect of 5-FU on cell viability” value in the data set with MIP/5FU cells [3] is listed as “remained unaffected”. Besides, the results for the cytotoxicity at 1000 µM in the data set with MIP/SP cells [4] (setting [16]) and in the data set with MIP/ZEO cells [5] (setting [16]) were 16.8 ± 4.5% and 21 ± 5.9%, respectively. In the data set on MIP/ZEO cells [5] (5-FU-treated after pre-incubation with Caspase 8-like inhibitor), the “decrease in cell viability” value amounted to 14.0±4.6%. For the same molecule, the “Caspase 3/7 activity” value turned out to be 16397.0±2787.6 RLU in data set [6] (MIP/SP cells, 12 hours after incubation with 5-FU); 291.0±34.7 RLU in data set [6] (MIP/SP transfected with Caspase 8 siRNA, 5-FU treated); 5501.0±800.0 RLU in [6] (control MIP/SP cells, 5-FU treated); 9954.0±1104.8 RLU in data set [7] (MIP/ZEO cells, 12 hours after incubation with 5-FU); 1915.0±661.3 RLU in data set [7] (MIP/ZEO, 5-FU, scramble control); 2321.3±661.3 RLU in data set [7] (MIP/ZEO, 5-FU, transfected with Caspase 8 siRNA). Moreover, the “Caspase 3 activation” value in data set [8] is listed as “No Caspase 3 activation was observed”. For the same molecule, the “apoptotic cells (TUNEL)” value in the data set on MIP/SP cells [9] (MIP/SP exposed to 5-FU, no Caspase 8 inhibition) was 20.7±6.9%; with MIP/SP cells [9] (MIP/SP, 5-FU following Caspase 8 gene knock-down), 0.5±0.5%; in the data set with MIP/ZEO cells [10] (no transfection with Caspase 8 siRNA), 12.2±0.7%; in the data set on MIP/ZEO cells [10] (transfection with Caspase 8 siRNA), 12.5±2.4%. Also, the “apoptosis response (TUNEL)” value in the data set with MIP/5FU cells [11] is on record as “did not respond to 5-FU treatment significantly”. The “Caspase 8 protein activity in tumors” value in data set [12] is reported as “highest”.

For `CC(=O)O[C@H]1C(=O)[C@@]2(C)[C@H]([C@H](OC(=O)c3ccccc3)[C@]3(O)C[C@H](OC(=O)[C@H](O)[C@@H](NC(=O)c4ccccc4)c4ccccc4)C(C)=C1C3(C)C)[C@]1(OC(C)=O)CO[C@@H]1C[C@@H]2O` [TAX, Taxol], in data set [13], the concentration for half-maximal inhibition (IC50) (as a rule, the concentration at which inhibition is half-maximal) is 0.012 µg/mL (≈ 0.0141 µM).

“SEQ ID NO: 20: truncated SPARC polypeptide comprising a sequence near the SPARC amino terminus (APQQEALPDETEVVEETVAEVTEVSVGANPVQVEVGEFDDGAEETEEEVVA; SPARC Polypeptide Expressed in MIP/NT cells)”: in the data set with Procaspase 8, the “interaction with Procaspase 8 (co-immunoprecipitation)” value was “involves a SPARC domain which is within the amino acid sequence of SEQ ID NO: 20”.

z-IETD-fmk: the “effect of Caspase 8-like inhibitor on 5-FU-induced decrease in cell viability” value in the data set with MIP/SP cells [4] (pre-incubation with inhibitor (as low as 10 μM), then 1000 μM 5-FU) is given as “prevented a significant decrease in cell viability”; with MIP/ZEO cells [5] (inhibitor 50 μM, then 5-FU), “no such effect could be demonstrated”.

For z-LEHD-fmk•TFA, the “effect of Caspase 9-like inhibitor on 5-FU-induced decrease in cell viability” value with MIP/SP cells [4] (inhibitor then 5-FU) and with MIP/ZEO cells [5] (inhibitor then 5-FU) was “preventing a significant decrease in cell viability” in each case.

B1: SPARC: Secreted Protein, Acidic, Rich in Cysteines, a 281 amino acid glycoprotein (protein)
chain: APQQEALPDETEVVEETVAEVTEVSVGANPVQVEVGEFDDGAEETEEEVVAENPCQNHHCKHGKVCELDENNTPMCVCQDPTSCPAPIGEFEKVCSNDNKTFDSSCHFFATKCTLEGTKKGHKLHLDYIGPCKYIPPCLDSELTEFPLRMRDWLKNVLVTLYERDEDNNLLTEKQKLRVKKIHENEKRLEAGDHPVELLARDFEKNYNMYIFPVHWQFGQLDQHPIDGYLSHTELAPLRAPLIPMEHCTTRFFETCDLDNDKYIALDEWAGCFGIKQKDIDKDLVI
modifications: left off: small tags and cut ends
notes: Secreted Protein, Acidic, Rich in Cysteines, a 281 amino acid glycoprotein
Take B1: in data set [14], the “Caspase 8 expression in tumor xenografts” value is “higher levels of Caspase 8”. Further, in data set [15], the “blocking of interaction between Bcl-2 and Procaspase 8” value was “can be blocked”.
